≈ marks a conversion by molar mass, not a printed value.
Legend:
physchem = conditions: for solubility at 24 h: kinetic from dmso stock
Summary of the method: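 DMSO doubling dilutions were diluted twenty-fold into 100 mM citrate (pH 4), PBS (pH 7.4) or carbonate-bicarbonate (pH 9). After 24 h equilibration at room temperature, absorbance was read at 620 nm. The reported value is the highest concentration without measurable precipitate.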

[1] = tested on: Staphylococcus aureus (Isolate ID ATCC 29213); assay: Antibacterial activity, MIC, S. aureus; format: cell-based; conditions: broth microdilution or agar dilution; for MIC: Staphylococcus aureus, ATCC29213, Gram positive strain
Summary of the method: (§1)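 Readout is the MIC, established according to CLSI standard M7-A7 using either agar dilution or broth microdilution.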

[2] = tested on: Enterococcus faecalis (Isolate ID ATCC 29212); assay: Antibacterial activity, MIC, E. faecalis; format: cell-based; conditions: Gram positive strain, broth microdilution or agar dilution; for MIC: Enterococcus faecalis, ATCC29212
Summary of the method: as §1

[3] = tested on: Streptococcus pyogenes (Isolate ID ATCC 51339); assay: Antibacterial activity, MIC, S. pyogenes; format: cell-based; conditions: broth microdilution or agar dilution; for MIC: Streptococcus pyogenes, ATCC51339, Gram positive strain
Summary of the method: as §1

[4] = tested on: Haemophilus influenzae (Isolate ID ATCC 49247); assay: Antibacterial activity, MIC, H. influenzae; format: cell-based; conditions: Gram negative strain, broth microdilution or agar dilution; for MIC: Haemophilus influenzae, ATCC49247
Summary of the method: as §1

[5] = Pharmacokinetic assay, IV and oral PK profile, rat; format: in vivo; conditions: for bioavailability: read-out: F (%) bioavailability
Procedure: (§2) Pharmacokinetic Assays: Determination of PK Profile
(§3) The pharmacokinetic profiles of compounds were determined by measuring the compound concentration in plasma by LC/MS/MS following a single intravenous or peroral administration of the compounds at a dose of 3 mg/kg. The concentrations described are the mean plasma concentrations at each time point from three animals. Intravenous dose formulation was administered as a single bolus dose through the tail vein. Oral dose formulation was administered to animals by an oral gavage needle. In both cases the dose volume was 5.0 mL/kg. Blood was collected from rats using a jugular vein catheter and from anesthetized mice through a capillary guided into the retro-orbital plexus. The collected blood was centrifuged to obtain plasma and the compounds extracted into methanol prior to determining the compound concentration by LC/MS/MS. The results for selected compounds of the invention are shown in FIGS. 2 to 8 where the X axis denotes time (hours) and the Y axis denotes plasma concentration (ng/mL). The Cmaxoral (μg/mL), AUCiv (μg·hr/mL), AUCoral (μg.hr/mL) and F(%) values are provided in the following table where Cmaxoral is the maximum oral concentration, AUC is area under the curve for intraveneous (IV) and oral and F (%) represents compound bioavailability as calculated by [AUCoral/AUCiv]×100%.

[6] = Pharmacokinetic assay, IV and oral PK profile, mouse; format: in vivo; conditions: plasma
Procedure: as §2, §3

[7] = pH 7.4, aqueous buffer, Max Solubility
[8] = pH 7.4, aqueous buffer, Solubility (pH 7.4)
[9] = pH 7.4, aqueous buffer, Solubility Range
[10] = pH 7.4, aqueous buffer, Solubility Range (maximum solubility)
[11] = po, single peroral dose 3 mg/kg, plasma, read-out: AUCoral
[12] = single peroral dose 3 mg/kg, plasma
[13] = plasma, po, [AUCoral/AUCiv]×100%, 3 mg/kg
[14] = single intravenous dose 3 mg/kg, plasma, read-out: AUCiv
[15] = pH 9, aqueous buffer, Max Solubility
[16] = pH 9, aqueous buffer, Solubility Range (maximum solubility)

solubility at 24 h (physchem; [7]) [µg/mL] | solubility at 24 h (physchem; [8]) [µg/mL] | solubility at 24 h (physchem; [9]) [µg/mL] | solubility at 24 h (physchem; [10]) [µg/mL] | MIC [1] [µg/mL] | MIC [2] [µg/mL] | MIC [3] [µg/mL] | MIC [4] [µg/mL] | AUC [5, 11] [ng·h/mL] | Cmaxoral [5, 12] [ng/mL] | SMILES | further results
≥ 800 | ≥ 800 | > 800 | > 800 | ≤ 0.25 | ≤ 0.25 | ≤ 0.25 | 1 to 16 (≈ 1.93 to 30.9 µM) | 8300 | 1800 | CCNC(=O)Nc1nc2cc(-c3cnc(N4CCC(C)(C(=O)O)CC4)nc3)cc(-c3ccccn3)c2s1 [Compound 1, 1-[5-[2-(ethylcarbamoylamino)-7-(2-pyridyl)-1,3-benzothiazol-5-yl]pyrimidin-2-yl]-4-methyl-piperidine-4-carboxylic acid] | F (%) bioavailability ([5]; [AUCoral/AUCiv]×100%, 3 mg/kg): 48%; AUCiv ([5]; single intravenous dose 3 mg/kg, plasma): 17400 ng·h/mL
≥ 800 | ≥ 800 | > 800 | > 800 | ≤ 0.25 | ≤ 0.25 | ≤ 0.25 | 1 to 16 (≈ 1.83 to 29.2 µM) | 700 | 300 | CCNC(=O)Nc1nc2cc(-c3cnc(N4CCC(COC)(C(=O)O)CC4)nc3)cc(-c3ccccn3)c2s1 [Compound 141] | bioavailability [5, 13]: 8.9%; AUC [5, 14]: 8300 ng·h/mL
– | 400 (≈ 733 µM) | 400 to 800 (≈ 733 to 1470 µM) | – | ≤ 0.25 | ≤ 0.25 | ≤ 0.25 | 1 to 16 (≈ 1.83 to 29.3 µM) | – | – | CCNC(=O)Nc1nc2cc(-c3cnc(N4CCC(C(=O)O)(C(C)C)CC4)nc3)cc(-c3ccccn3)c2s1 [Compound 137] | –
– | ≥ 800 | > 800 | – | ≤ 0.25 | ≤ 0.25 | ≤ 0.25 | 1 to 16 (≈ 1.82 to 29.1 µM) | – | – | CCNC(=O)Nc1nc2cc(-c3cnc(N4CCC(SC)(C(=O)O)CC4)nc3)cc(-c3ccccn3)c2s1 [Compound 138] | –
≥ 800 | ≥ 800 | > 800 | > 800 | ≤ 0.25 | ≤ 0.25 | ≤ 0.25 | 1 to 16 (≈ 1.84 to 29.4 µM) | 4700 | 700 | CCNC(=O)Nc1nc2cc(-c3cnc(N4CCC(C(=O)O)(C5CC5)CC4)nc3)cc(-c3ccccn3)c2s1 [Compound 143] | bioavailability [5, 13]: 10%; AUC [5, 14]: 46900 ng·h/mL
– | 12.5 (≈ 19.8 µM) | 12.5 to 400 (≈ 19.8 to 632 µM) | – | 1 to 16 (≈ 1.58 to 25.3 µM) | ≤ 0.25 | ≤ 0.25 | > 16 | – | – | CCNC(=O)Nc1nc2cc(-c3cnc(N4CCC(NC(=O)OC(C)(C)C)(C(=O)OC)CC4)nc3)cc(-c3ccccn3)c2s1 [Compound 167] | –

The next lines start with the compound.

SMILES | solubility at 24 h (physchem; [7]) [µg/mL] | solubility at 24 h (physchem; [8]) [µg/mL] | solubility at 24 h (physchem; [9]) [µg/mL] | solubility at 24 h (physchem; [10]) [µg/mL] | MIC [1] [µg/mL] | MIC [2] [µg/mL] | MIC [3] [µg/mL] | MIC [4] [µg/mL] | AUC [5, 11] [ng·h/mL] | Cmaxoral [5, 12] [ng/mL] | further results
CCNC(=O)Nc1nc2cc(-c3cnc(N4CCC(C)(C(=O)O)CC4)nc3)cc(/C(C)=N/OC)c2s1 [Compound 88, 1-[5-[2-(ethylcarbamoylamino)-7-[(E)-N-methoxy-C-methyl-carbonimidoyl]-1,3-benzothiazol-5-yl]pyrimidin-2-yl]-4-methyl-piperidine-4-carboxylic acid] | ≥ 800 | ≥ 800 | > 800 | > 800 | ≤ 0.25 | ≤ 0.25 | ≤ 0.25 | 1 to 16 (≈ 1.95 to 31.3 µM) | – | – | bioavailability ([6]; po, [AUCoral/AUCiv]×100%, 3 mg/kg, read-out: F (%) bioavailability): 56%; AUC ([6]; po, single peroral dose 3 mg/kg, read-out: AUCoral): 3400 ng·h/mL; AUC ([6]; single intravenous dose 3 mg/kg, read-out: AUCiv): 6100 ng·h/mL; Cmaxoral ([6]; single peroral dose 3 mg/kg): 2000 ng/mL
CCNC(=O)Nc1nc2cc(-c3ccc(N4CCC(CC)(C(=O)O)CC4)nc3)cc(-c3ccccn3)c2s1 [Compound 103] | – | 400 (≈ 754 µM) | 400 to 800 (≈ 754 to 1510 µM) | – | ≤ 0.25 | ≤ 0.25 | ≤ 0.25 | 1 to 16 (≈ 1.88 to 30.2 µM) | 22200 | 5700 | solubility at 24 h (physchem; [15]): ≥ 800 µg/mL; solubility at 24 h (physchem; [16]): > 800 µg/mL; bioavailability [5, 13]: 76.5%; AUC [5, 14]: 29000 ng·h/mL
CCNC(=O)Nc1nc2cc(-c3cnc(N4CCC(C)(C(=O)O)CC4)nc3)cc(-c3cscn3)c2s1 [Compound 21] | – | ≥ 800 | > 800 | – | ≤ 0.25 | ≤ 0.25 | 0.25 to 1 (≈ 0.477 to 1.91 µM) | 1 to 16 (≈ 1.91 to 30.6 µM) | 1000 | 400 | bioavailability [5, 13]: 14.3%; AUC [5, 14]: 7100 ng·h/mL
CCNC(=O)Nc1nc2c(F)c(-c3cnc(N4CCC(C)(C(=O)O)CC4)nc3)cc(-c3ccccn3)c2s1 [Compound 161, 1-[5-[2-(ethylcarbamoylamino)-4-fluoro-7-(2-pyridyl)-1,3-benzothiazol-5-yl]pyrimidin-2-yl]-4-methyl-piperidine-4-carboxylic acid] | ≥ 800 | ≥ 800 | > 800 | > 800 | ≤ 0.25 | ≤ 0.25 | ≤ 0.25 | 0.25 to 1 (≈ 0.467 to 1.87 µM) | 4200 | 700 | bioavailability [5, 13]: 87%; AUC [5, 14]: 4800 ng·h/mL
CCNC(=O)Nc1nc2cc(-c3cnc(N4CCC(C)(C(=O)O)CC4)nc3)cc(-c3ncc(CC)cn3)c2s1 [Compound 60] | – | 12.5 (≈ 22.9 µM) | 12.5 to 400 (≈ 22.9 to 732 µM) | – | ≤ 0.25 | ≤ 0.25 | ≤ 0.25 | 0.25 to 1 (≈ 0.457 to 1.83 µM) | – | – | solubility at 24 h (physchem; [15]): 400 µg/mL (≈ 732 µM); solubility at 24 h (physchem; [16]): 400 to 800 µg/mL (≈ 732 to 1460 µM)
CCNC(=O)Nc1nc2cc(-c3cnc(N4CCC(C)(C(=O)O)CC4)nc3)cc(-c3nccnc3OC)c2s1 [Compound 86] | ≥ 800 | ≥ 800 | > 800 | > 800 | ≤ 0.25 | ≤ 0.25 | ≤ 0.25 | 1 to 16 (≈ 1.82 to 29.2 µM) | – | – | –
CCNC(=O)Nc1nc2cc(-c3cnc(N4CCC(C)(C(=O)O)CC4)nc3)cc(-c3cc(OC(C)C)ncn3)c2s1 [Compound 48] | – | 400 (≈ 694 µM) | 400 to 800 (≈ 694 to 1390 µM) | – | ≤ 0.25 | ≤ 0.25 | ≤ 0.25 | 1 to 16 (≈ 1.73 to 27.7 µM) | – | – | solubility at 24 h (physchem; [15]): ≥ 800 µg/mL; solubility at 24 h (physchem; [16]): > 800 µg/mL
CCNC(=O)Nc1nc2cc(-c3cnc(N4CCC(CC)(C(=O)OCC)CC4)nc3)cc(Br)c2s1 [Compound 107] | – | – | – | – | – | – | – | – | – | – | Max Solubility (physchem; pH 7.4): ≧800 μg/mL; Solubility (pH 7.4) (physchem; pH 7.4): ≧800 μg/mL; Antibacterial Activity (MIC) S. aureus (ATCC 29213) ([1]; Gram positive strain): A (“A” activity ≦0.25 μg/mL); Antibacterial Activity (MIC) E. faecalis (ATCC 29212) [2]: A (“A” activity ≦0.25 μg/mL); Antibacterial Activity (MIC) S. pyogenes (ATCC 51339) ([3]; Gram positive strain): B (“B” activity >0.25 μg/mL-1.0 μg/mL); Antibacterial Activity (MIC) H. influenzae (ATCC 49247) [4]: D (“D” activity >16 μg/mL)
CCNC(=O)Nc1nc2cc(-c3cnc(N4CCC(C)(C(=O)O)CC4)nc3)cc(-c3ncc(C#N)cc3C)c2s1 [Compound 69] | ≥ 800 | ≥ 800 | > 800 | > 800 | 1 to 16 (≈ 1.8 to 28.7 µM) | ≤ 0.25 | 0.25 to 1 (≈ 0.449 to 1.8 µM) | 1 to 16 (≈ 1.8 to 28.7 µM) | – | – | –
CCNC(=O)Nc1nc2cc(-c3cnc(N4CCC(C)(C(=O)O)CC4)nc3)cc(-c3cnc(OCC)s3)c2s1 [Compound 78] | – | 400 (≈ 705 µM) | 400 to 800 (≈ 705 to 1410 µM) | – | 0.25 to 1 (≈ 0.44 to 1.76 µM) | ≤ 0.25 | 0.25 to 1 (≈ 0.44 to 1.76 µM) | > 16 | – | – | solubility at 24 h (physchem; [15]): ≥ 800 µg/mL; solubility at 24 h (physchem; [16]): > 800 µg/mL
CCNC(=O)Nc1nc2cc(-c3cnc(N4CCC(C)(C(=O)O)CC4)nc3)cc(-c3cc(OCCOC)nc(C)n3)c2s1 [Compound 49] | ≥ 800 | ≥ 800 | > 800 | > 800 | ≤ 0.25 | ≤ 0.25 | ≤ 0.25 | 1 to 16 (≈ 1.65 to 26.4 µM) | – | – | –
CCNC(=O)Nc1nc2cc(-c3cnc(N4CCC(C)(C(=O)O)CC4)nc3)cc(-c3nccc(OC)n3)c2s1 [Compound 8] | – | 100 (≈ 182 µM) | 12.5 to 400 (≈ 22.8 to 729 µM) | – | ≤ 0.25 | ≤ 0.25 | ≤ 0.25 | 1 to 16 (≈ 1.82 to 29.2 µM) | – | – | –
CCNC(=O)Nc1nc2cc(-c3cnc(N4CCC(C)(C(=O)O)CC4)nc3)cc(-c3ccn(C)c(=O)c3)c2s1 [Compound 79] | ≥ 800 | ≥ 800 | > 800 | > 800 | > 16 | 1 to 16 (≈ 1.83 to 29.2 µM) | 1 to 16 (≈ 1.83 to 29.2 µM) | > 16 | – | – | –
